Assay results from the NIST ThermoML archive (doi:10.1016/j.jct.2010.08.019).
Several values for one entry are separate records, joined by “and”; a condition that tells them apart may be missing. Equal values may be shown once.

Key:
[1] = for surface tension liquid-gas: Wilhelmy-plate method; for viscosity / mass density: Liquid; for viscosity: Falling or rolling sphere viscometry; for mass density: Vibrating tube method
[2] = refractive index (Na D-line) (dimensionless); conditions: Liquid, Standard Abbe refractometry
[3] = xn = mol fraction of the nth substance listed; conditions: for surface tension liquid-gas: Wilhelmy-plate method; for viscosity / mass density: 101 kPa, Liquid; for viscosity: Falling or rolling sphere viscometry; for mass density: Vibrating tube method
[4] = refractive index (Na D-line) (dimensionless); xn = mol fraction of the nth substance listed; conditions: 101 kPa, Liquid, Standard Abbe refractometry

CC(C)CC(C)(C)C [2,2,4-trimethylpentane]
[1]
Conditions	surface tension liquid-gas [mN/m]
293.15 K	18.8
298.15 K	18.3
303.15 K	17.9
313.15 K	16.9
323.15 K	16.2

Conditions	mass density, [1] [kg/m3]	refractive index, [2]	viscosity, [1] [mPa·s]
293.15 K, 101 kPa	691.98	1.39161	0.503
298.15 K, 101.33 kPa	687.7	1.38906	0.475
303.15 K, 101 kPa	683.61	1.3866	0.447
313.15 K, 101 kPa	675.23	1.38143	0.404
323.15 K, 101 kPa	666.8	1.37627	0.365

CC(C)CC(C)(C)C [2,2,4-trimethylpentane] + C1CCOCC1
x2 = 0
Conditions	mass density, [3] [kg/m3]	refractive index, [4]	surface tension liquid-gas, [3] [mN/m]	viscosity, [3] [mPa·s]
293.15 K	691.98	1.39161	18.8	0.503
303.15 K	683.61	1.3866	17.9	0.447
313.15 K	675.23	1.38143	16.9	0.404
323.15 K	666.8	1.37627	16.2	0.365

CC(C)O [propan-2-ol]
[1]
Conditions	surface tension liquid-gas [mN/m]
293.15 K	21.3
298.15 K	20.9
303.15 K	20.4
313.15 K	19.6
323.15 K	18.8

Conditions	mass density, [1] [kg/m3]	refractive index, [2]	viscosity, [1] [mPa·s]
293.15 K, 101 kPa	785.44	1.37724	2.362
298.15 K, 101.33 kPa	781.05	1.3752	2.04
303.15 K, 101 kPa	776.75	1.37286	1.769
313.15 K, 101 kPa	767.93	1.36852	1.331
323.15 K, 101 kPa	758.9	1.36363	1.019

CC(C)O [propan-2-ol] + C1CCOCC1
x1 = 1
Conditions	mass density, [3] [kg/m3]	refractive index, [4]	surface tension liquid-gas, [3] [mN/m]	viscosity, [3] [mPa·s]
293.15 K	785.44	1.37724	21.3	2.362
303.15 K	776.75	1.37286	20.4	1.769
313.15 K	767.93	1.36852	19.6	1.331
323.15 K	758.9	1.36363	18.8	1.019

CC(C)O [propan-2-ol] + CC(C)CC(C)(C)C
x1 = 1
Conditions	mass density, [3] [kg/m3]	refractive index, [4]	surface tension liquid-gas, [3] [mN/m]	viscosity, [3] [mPa·s]
293.15 K	785.44	1.37724	21.3	2.362
303.15 K	776.75	1.37286	20.4	1.769
313.15 K	767.93	1.36852	19.6	1.331
323.15 K	758.9	1.36363	18.8	1.019

C1CCOCC1 [tetrahydropyran]
[1]
Conditions	surface tension liquid-gas [mN/m]
293.15 K	27.5
298.15 K	27.2
303.15 K	26.2
313.15 K	25.1
323.15 K	23.8

Conditions	mass density, [1]	refractive index, [2]	viscosity, [1] [mPa·s]
293.15 K, 101 kPa	884.27 kg/m3	1.39161 and 1.42109	0.86
298.15 K, 101.33 kPa	878.8 kg/m3	1.4186	0.8
303.15 K, 101 kPa	874.07 kg/m3	1.3866 and 1.41599	0.749
313.15 K, 101 kPa	863.76 kg/m3	1.38143 and 1.41092	0.658
323.15 K, 101 kPa	666.8 kg/m3 and 853.46 kg/m3	1.37627 and 1.40554	0.565
